In this experiment the test system is MV-4-11 cells. Briefly: Gene expression microarray analysis (Affymetrix PrimeView) and GSEA. In kind it is cell-based, human. Further details: RFU PODN (11730768_x_at) / Fold change /veh PODN (11730768_x_at) / RFU LINC00158 (11744669_a_at) / Fold change /veh LINC00158 (11744669_a_at) / RFU DUSP10 (11751237_a_at) / Fold change /veh DUSP10 (11751237_a_at) / RFU ID3 (11757404_x_at) / Fold change /veh ID3 (11757404_x_at) / RFU PLEKHG5 (11737974_s_at) / Fold change /veh PLEKHG5 (11737974_s_at) / RFU LRRC4B (11730491_at) / Fold change /veh LRRC4B (11730491_at) / RFU GIMAP4 (11747438_a_at) / Fold change /veh GIMAP4 (11747438_a_at) / RFU KRT8 (11758183_x_at) / Fold change /veh KRT8 (11758183_x_at) / RFU CNN1 (11734310_a_at) / Fold change /veh CNN1 (11734310_a_at) / RFU VPS37D (11726825_at) / Fold change /veh VPS37D (11726825_at) / RFU C10orf10 (11716522_x_at) / Fold change /veh C10orf10 (11716522_x_at) / RFU KIR2DL2 /// KIR2DL4 /// KIR2DL5A /// KIR2DL5B /// KIR2DS1 /// KIR2DS2 /// KIR2DS3 /// KIR2DS4 /// KIR3DL3 /// KIR3DL3 /// KIR3DS1 (11738374_at) / Fold change /veh KIR2DL2 /// KIR2DL4 /// KIR2DL5A /// KIR2DL5B /// KIR2DS1 /// KIR2DS2 /// KIR2DS3 /// KIR2DS4 /// KIR3DL3 /// KIR3DL3 /// KIR3DS1 (11738374_at) / RFU C1QL1 (11718748_at) / Fold change /veh C1QL1 (11718748_at) / RFU TMPRSS4 (11747572_a_at) / Fold change /veh TMPRSS4 (11747572_a_at) / RFU HAMP (11756126_x_at) / Fold change /veh HAMP (11756126_x_at) / RFU RNFT2 (11725882_a_at) / Fold change /veh RNFT2 (11725882_a_at) / RFU NR4A2 (11747474_a_at) / Fold change /veh NR4A2 (11747474_a_at) / RFU ABCC12 (11746883_a_at) / Fold change /veh ABCC12 (11746883_a_at) / RFU TMEM136 (11760407_x_at) / Fold change /veh TMEM136 (11760407_x_at) / RFU CLDN22 /// WWC2 (11732394_at) / Fold change /veh CLDN22 /// WWC2 (11732394_at) / RFU HLA-DPB1 (11760878_x_at) / Fold change /veh HLA-DPB1 (11760878_x_at) / RFU SPINT1 (11716480_a_at) / Fold change /veh SPINT1 (11716480_a_at) / RFU GAP43 (11754022_s_at) / Fold change /veh GAP43 (11754022_s_at) / RFU A4GNT (11735810_at) / Fold change /veh A4GNT (11735810_at) / RFU PRB3 (11715151_x_at) / Fold change /veh PRB3 (11715151_x_at) / RFU TUBB4B (11761932_at) / Fold change /veh TUBB4B (11761932_at) / RFU CAPN14 (11732068_a_at) / Fold change /veh CAPN14 (11732068_a_at) / RFU TMCC2 (11721928_a_at) / Fold change /veh TMCC2 (11721928_a_at) / RFU IRGQ (11745062_a_at) / Fold change /veh IRGQ (11745062_a_at) / RFU FAM174B (11720279_a_at) / Fold change /veh FAM174B (11720279_a_at) / RFU TMPRSS4 (11748680_a_at) / Fold change /veh TMPRSS4 (11748680_a_at) / RFU FAM212B (11763350_a_at) / Fold change /veh FAM212B (11763350_a_at) / RFU PLEKHG5 (11743358_a_at) / Fold change /veh PLEKHG5 (11743358_a_at) / RFU ZSCAN30 (11745921_a_at) / Fold change /veh ZSCAN30 (11745921_a_at) / RFU CMKLR1 (11741424_a_at) / Fold change /veh CMKLR1 (11741424_a_at) / RFU LOC101060620 /// MAPK8IP1 (11723275_at) / Fold change /veh LOC101060620 /// MAPK8IP1 (11723275_at) / RFU SPTSSB (11747773_x_at) / Fold change /veh SPTSSB (11747773_x_at) / RFU PRSS12 (11739890_at) / Fold change /veh PRSS12 (11739890_at) / RFU BIN1 (11741810_x_at) / Fold change /veh BIN1 (11741810_x_at) / RFU WNT11 (11732464_a_at) / Fold change /veh WNT11 (11732464_a_at) / RFU C10orf10 (11716521_a_at) / Fold change /veh C10orf10 (11716521_a_at) / RFU C5orf56 (11738089_at) / Fold change /veh C5orf56 (11738089_at) / RFU CYB561 (11721691_x_at) / Fold change /veh CYB561 (11721691_x_at) / RFU ANKRD19P (11752326_a_at) / Fold change /veh ANKRD19P (11752326_a_at) / RFU OR2T12 /// OR2T33 /// OR2T8 (11738714_s_at) / Fold change /veh OR2T12 /// OR2T33 /// OR2T8 (11738714_s_at) / RFU VCAN (11748164_a_at) / Fold change /veh VCAN (11748164_a_at) / RFU JSRP1 (11732532_at) / Fold change /veh JSRP1 (11732532_at) / RFU KRTAP10-11 (11738290_x_at) / Fold change /veh KRTAP10-11 (11738290_x_at) / RFU MYO3A (11730013_a_at) / Fold change /veh MYO3A (11730013_a_at) / RFU EBF3 (11725865_a_at) / Fold change /veh EBF3 (11725865_a_at) / RFU CAMK2N1 (11719241_x_at) / Fold change /veh CAMK2N1 (11719241_x_at) / RFU C5orf56 (11738088_a_at) / Fold change /veh C5orf56 (11738088_a_at) / RFU OLFML3 (11715873_a_at) / Fold change /veh OLFML3 (11715873_a_at) / RFU LOC100653217 /// NTM (11731650_a_at) / Fold change /veh LOC100653217 /// NTM (11731650_a_at) / RFU MAPK11 (11762145_a_at) / Fold change /veh MAPK11 (11762145_a_at) / RFU FIZ1 (11724087_x_at) / Fold change /veh FIZ1 (11724087_x_at) / RFU OASL (11726364_x_at) / Fold change /veh OASL (11726364_x_at) / RFU SOX15 (11748057_x_at) / Fold change /veh SOX15 (11748057_x_at) / RFU CD79A (11719716_a_at) / Fold change /veh CD79A (11719716_a_at) / RFU HIST1H1D (11736915_at) / Fold change /veh HIST1H1D (11736915_at) / RFU CASKIN2 (11723855_a_at) / Fold change /veh CASKIN2 (11723855_a_at) / RFU LOC730098 (11760151_x_at) / Fold change /veh LOC730098 (11760151_x_at) / RFU OR4N2 (11742367_at) / Fold change /veh OR4N2 (11742367_at) / RFU PRRT2 (11749266_a_at) / Fold change /veh PRRT2 (11749266_a_at) / RFU SNX32 (11753110_a_at) / Fold change /veh SNX32 (11753110_a_at) / RFU CDHR5 (11726645_a_at) / Fold change /veh CDHR5 (11726645_a_at) / RFU RCAN1 (11760418_a_at) / Fold change /veh RCAN1 (11760418_a_at) / RFU FAM167A (11723789_a_at) / Fold change /veh FAM167A (11723789_a_at) / RFU FAM26E (11764081_at) / Fold change /veh FAM26E (11764081_at) / RFU ISYNA1 (11749810_s_at) / Fold change /veh ISYNA1 (11749810_s_at) / RFU ACY1 (11761880_at) / Fold change /veh ACY1 (11761880_at) / RFU 11764098_at / Fold change /veh 11764098_at / RFU SAMD14 (11745864_x_at) / Fold change /veh SAMD14 (11745864_x_at) / RFU NPB (11741838_a_at) / Fold change /veh NPB (11741838_a_at) / RFU TMPRSS6 (11731388_a_at) / Fold change /veh TMPRSS6 (11731388_a_at) / RFU KRTAP10-2 (11738614_at) / Fold change /veh KRTAP10-2 (11738614_at) / RFU ARHGAP8 /// PRR5-ARHGAP8 (11727945_x_at) / Fold change /veh ARHGAP8 /// PRR5-ARHGAP8 (11727945_x_at) / RFU KRTAP5-7 /// NADSYN1 (11734609_at) / Fold change /veh KRTAP5-7 /// NADSYN1 (11734609_at) / RFU RASL12 (11751679_a_at) / Fold change /veh RASL12 (11751679_a_at) / RFU CDKN2B (11736163_a_at) / Fold change /veh CDKN2B (11736163_a_at) / RFU PRF1 (11729649_at) / Fold change /veh PRF1 (11729649_at) / RFU, ZNF638 /// ZNF638-IT1 / Fold change vs veh, ZNF638 /// ZNF638-IT1 / RFU, PANK3 / Fold change vs veh, PANK3 / RFU, SH3YL1 / Fold change vs veh, SH3YL1 / RFU, ZEB2 / Fold change vs veh, ZEB2 / RFU, NRIP1 / Fold change vs veh, NRIP1 / RFU, PTTG1IP / Fold change vs veh, PTTG1IP / RFU, CAPN2 / Fold change vs veh, CAPN2 / RFU, MED14 / Fold change vs veh, MED14 / RFU, SNORA58 / Fold change vs veh, SNORA58 / RFU, C1orf63 / Fold change vs veh, C1orf63 / RFU, LRRFIP1 / Fold change vs veh, LRRFIP1 / RFU, NDUFAF7 / Fold change vs veh, NDUFAF7 / RFU, SLC12A2 / Fold change vs veh, SLC12A2 / RFU, IBTK / Fold change vs veh, IBTK / RFU, ESF1 / Fold change vs veh, ESF1 / Fold change vs veh, TMEM50B / RFU, TAOK1 / Fold change vs veh, TAOK1 / RFU, ACBD3 / Fold change vs veh, ACBD3 / RFU, TMA16 / Fold change vs veh, TMA16 / RFU, RWDD3 / Fold change vs veh, RWDD3 / RFU, BCAT1 / Fold change vs veh, BCAT1 / RFU, EDEM3 / Fold change vs veh, EDEM3 / RFU, TMEM33 / Fold change vs veh, TMEM33 / RFU, WDR75 / Fold change vs veh, WDR75 / RFU, AHCTF1 / Fold change vs veh, AHCTF1 / RFU, TFRC / Fold change vs veh, TFRC / RFU, ZDHHC17 / Fold change vs veh, ZDHHC17 / RFU, NOM1 / Fold change vs veh, NOM1 / RFU, ARL8B / Fold change vs veh, ARL8B / RFU, ZBTB11 / Fold change vs veh, ZBTB11 / RFU, TAMM41 / Fold change vs veh, TAMM41 / RFU, KIAA1704 /// LOC100996395 / Fold change vs veh, KIAA1704 /// LOC100996395 / RFU, ING1 / Fold change vs veh, ING1 / RFU, TRMT61B / Fold change vs veh, TRMT61B / RFU, FUBP3 / Fold change vs veh, FUBP3 / RFU, TP53 / Fold change vs veh, TP53 / RFU, TNKS2 / Fold change vs veh, TNKS2 / RFU, ZFP14 / Fold change vs veh, ZFP14 / RFU, ACTR2 / Fold change vs veh, ACTR2 / RFU, PPP3R1 / Fold change vs veh, PPP3R1 / RFU, PIK3R1 / Fold change vs veh, PIK3R1 / RFU, HNRNPA1 / Fold change vs veh, HNRNPA1 / RFU, RNF170 / Fold change vs veh, RNF170 / RFU, ZNF28 / Fold change vs veh, ZNF28 / RFU, RNGTT / Fold change vs veh, RNGTT / RFU, OGT / Fold change vs veh, OGT / RFU, BRD1 / Fold change vs veh, BRD1 / RFU, MARS / Fold change vs veh, MARS / RFU, ZNF655 / Fold change vs veh, ZNF655 / RFU, FAHD1 / Fold change vs veh, FAHD1 / RFU, BDP1 / Fold change vs veh, BDP1 / RFU, LRRCC1 / Fold change vs veh, LRRCC1 / RFU, ARID1A / Fold change vs veh, ARID1A / RFU, ZNF146 / Fold change vs veh, ZNF146 / RFU, ZNF330 / Fold change vs veh, ZNF330 / RFU, GPN3 / Fold change vs veh, GPN3 / RFU, C9orf123 / Fold change vs veh, C9orf123 / RFU, N4BP2L2 / Fold change vs veh, N4BP2L2 / RFU, ARFIP1 / Fold change vs veh, ARFIP1 / RFU, FAM179B / Fold change vs veh, FAM179B / RFU, BCL10 / Fold change vs veh, BCL10 / RFU, UHRF1BP1L / Fold change vs veh, UHRF1BP1L / RFU, BET1 / Fold change vs veh, BET1 / RFU, CNOT2 / Fold change vs veh, CNOT2 / RFU, ZNF268 / Fold change vs veh, ZNF268 / Fold change vs veh, ZNF507 / RFU, DGCR2 / Fold change vs veh, DGCR2 / RFU, WDSUB1 / Fold change vs veh, WDSUB1 / Fold change vs veh, HSP90B1 /// MIR3652 / RFU, ADSS / Fold change vs veh, ADSS / RFU, GK / Fold change vs veh, GK / RFU, ZNF148 / Fold change vs veh, ZNF148 / RFU, TAF9 / Fold change vs veh, TAF9 / RFU, SLC1A5 / Fold change vs veh, SLC1A5 / RFU, SLMO2 / Fold change vs veh, SLMO2 / RFU, ABCC4 / Fold change vs veh, ABCC4 / RFU, LOC101060439 /// RAP1B / Fold change vs veh, LOC101060439 /// RAP1B / RFU, RFX7 / Fold change vs veh, RFX7 / RFU, GTPBP10 / Fold change vs veh, GTPBP10 / RFU, CNEP1R1 / Fold change vs veh, CNEP1R1 / RFU, BIVM-ERCC5 /// ERCC5 / Fold change vs veh, BIVM-ERCC5 /// ERCC5 / RFU, ILF3 / Fold change vs veh, ILF3 / RFU 11762660_at / Fold change /veh 11762660_at / RFU VCAN (11757783_s_at) / Fold change /veh VCAN (11757783_s_at) / RFU DDX43 (11728927_at) / Fold change /veh DDX43 (11728927_at) / RFU KRT8 (11758188_x_at) / Fold change /veh KRT8 (11758188_x_at) / RFU NKD1 (11759106_at) / Fold change /veh NKD1 (11759106_at) / RFU SRD5A1 (11742802_a_at) / Fold change /veh SRD5A1 (11742802_a_at) / RFU TPSAB1 /// TPSB2 (11721975_s_at) / Fold change /veh TPSAB1 /// TPSB2 (11721975_s_at) / RFU GSTM3 (11746129_a_at) / Fold change /veh GSTM3 (11746129_a_at) / RFU IL23R (11737362_x_at) / Fold change /veh IL23R (11737362_x_at) / RFU TMEM51 (11727254_a_at) / Fold change /veh TMEM51 (11727254_a_at) / RFU PIWIL2 (11732686_x_at) / Fold change /veh PIWIL2 (11732686_x_at) / RFU ORM1 (11744905_x_at) / Fold change /veh ORM1 (11744905_x_at) / RFU CCDC152 (11743942_at) / Fold change /veh CCDC152 (11743942_at) / RFU ECM1 (11717891_a_at) / Fold change /veh ECM1 (11717891_a_at) / RFU IL23R (11748794_a_at) / Fold change /veh IL23R (11748794_a_at) / RFU TNFAIP8L3 (11732012_x_at) / Fold change /veh TNFAIP8L3 (11732012_x_at) / RFU MBOAT4 (11741988_at) / Fold change /veh MBOAT4 (11741988_at) / RFU 11764193_at / Fold change /veh 11764193_at / RFU TMEM53 (11763286_at) / Fold change /veh TMEM53 (11763286_at) / RFU MAGEB2 (11727129_at) / Fold change /veh MAGEB2 (11727129_at) / RFU TMEM200A (11744735_a_at) / Fold change /veh TMEM200A (11744735_a_at) / RFU CCDC152 (11751479_a_at) / Fold change /veh CCDC152 (11751479_a_at) / RFU FAM211A (11726209_a_at) / Fold change /veh FAM211A (11726209_a_at) / RFU RGS16 (11746705_a_at) / Fold change /veh RGS16 (11746705_a_at) / RFU VCAN (11755009_s_at) / Fold change /veh VCAN (11755009_s_at) / RFU RHOB (11743442_s_at) / Fold change /veh RHOB (11743442_s_at) / RFU RGS16 (11720943_a_at) / Fold change /veh RGS16 (11720943_a_at) / RFU RGS16 (11720944_at) / Fold change /veh RGS16 (11720944_at) / RFU, VPS4B / Fold change vs veh, VPS4B / RFU, CREB1 / Fold change vs veh, CREB1 / RFU, DNAJC13 / Fold change vs veh, DNAJC13 / RFU, GNAQ / Fold change vs veh, GNAQ / RFU, CDK5R1 / Fold change vs veh, CDK5R1 / RFU, ZRANB3 / Fold change vs veh, ZRANB3 / RFU, CUL4A / Fold change vs veh, CUL4A / RFU, CCNY / Fold change vs veh, CCNY / RFU, UFL1 / Fold change vs veh, UFL1 / RFU, COG3 / Fold change vs veh, COG3 / RFU, DIAPH2 / Fold change vs veh, DIAPH2 / RFU, SKA2 / Fold change vs veh, SKA2 / RFU, AFF3 / Fold change vs veh, AFF3 / RFU, LMF1 / Fold change vs veh, LMF1 / RFU, IPO11 / Fold change vs veh, IPO11 / RFU, DFFB / Fold change vs veh, DFFB / RFU, FOXP1 / Fold change vs veh, FOXP1 / RFU, CARD8 / Fold change vs veh, CARD8 / RFU, STRN3 / Fold change vs veh, STRN3 / RFU, ADK / Fold change vs veh, ADK / RFU, RASSF2 / Fold change vs veh, RASSF2 / RFU, WIPF1 / Fold change vs veh, WIPF1 / RFU, LARP1B / Fold change vs veh, LARP1B / RFU, RASA1 / Fold change vs veh, RASA1 / RFU, RB1 / Fold change vs veh, RB1 / RFU, PPFIA1 / Fold change vs veh, PPFIA1 / RFU, MAT2A / Fold change vs veh, MAT2A / RFU, CCT5 / Fold change vs veh, CCT5 / RFU, WDR92 / Fold change vs veh, WDR92 / RFU, CUX1 / Fold change vs veh, CUX1 / RFU, TTC7A / Fold change vs veh, TTC7A / RFU, TMEM135 / Fold change vs veh, TMEM135 / RFU, DEPTOR / Fold change vs veh, DEPTOR / RFU, CPM / Fold change vs veh, CPM / RFU, DNAJB6 / Fold change vs veh, DNAJB6 / RFU, CACNA2D3 / Fold change vs veh, CACNA2D3 / RFU, DTX4 / Fold change vs veh, DTX4 / RFU, TFCP2 / Fold change vs veh, TFCP2 / RFU, GMCL1 /// GMCL1P1 / Fold change vs veh, GMCL1 /// GMCL1P1 / RFU, AEBP2 / Fold change vs veh, AEBP2 / RFU, SNHG1 /// SNORD22 /// SNORD25 /// SNORD26 /// SNORD27 /// SNORD28 /// SNORD29 /// SNORD31 / Fold change vs veh, SNHG1 /// SNORD22 /// SNORD25 /// SNORD26 /// SNORD27 /// SNORD28 /// SNORD29 /// SNORD31 / Fold change (Aza/veh), C12orf56 (ProbeSet 11735607_a_at) / Fold change (ACY-1035/veh), C12orf56 (ProbeSet 11735607_a_at) / Fold change (Aza/veh), FGFR1OP (ProbeSet 11751329_s_at) / Fold change (ACY-1035/veh), FGFR1OP (ProbeSet 11751329_s_at) / Fold change (Aza/veh), VPS36 (ProbeSet 11739960_a_at) / Fold change (ACY-1035/veh), VPS36 (ProbeSet 11739960_a_at) / RFU SYPL1 (11715823_x_at) / Fold change /veh SYPL1 (11715823_x_at) / RFU IGFBP7 (11715501_s_at) / Fold change /veh IGFBP7 (11715501_s_at) / RFU REEP3 (11722064_at) / Fold change /veh REEP3 (11722064_at) / RFU IGLL1 (11728026_x_at) / Fold change /veh IGLL1 (11728026_x_at): dose or concentration left out as unconfirmed. The settings on record: ProbeSet 11716331_a_at; LIST D.

This note sets out measurements from paper PMC5218480 (PLoS ONE, 2017).

Regarding `Nc1ncn([C@@H]2O[C@H](CO)[C@@H](O)[C@H]2O)c(=O)n1` [azacitidine], the “Fold change vs veh, DNAJB6” value was determined as 0.52.
